Measured values reported in article PMC10177447, “4-[(5-Methyl-1H-pyrazol-3-yl)amino]-2H-phenyl-1-phthalazinone Inhibits MCPyV T Antigen Expression in Merkel Cell Carcinoma Independent of Aurora Kinase A” (Cancers, 2023).
pIC50: −log10 of the molar value.

Target: GSK3b (Homo sapiens, UniProt P49841)
Test: commercial GSK3 kinase assay (Promega) with ADP-Glo luminescence readout, dose-response
Format: biochemical

Sequence of GSK3b (P49841 whole entry): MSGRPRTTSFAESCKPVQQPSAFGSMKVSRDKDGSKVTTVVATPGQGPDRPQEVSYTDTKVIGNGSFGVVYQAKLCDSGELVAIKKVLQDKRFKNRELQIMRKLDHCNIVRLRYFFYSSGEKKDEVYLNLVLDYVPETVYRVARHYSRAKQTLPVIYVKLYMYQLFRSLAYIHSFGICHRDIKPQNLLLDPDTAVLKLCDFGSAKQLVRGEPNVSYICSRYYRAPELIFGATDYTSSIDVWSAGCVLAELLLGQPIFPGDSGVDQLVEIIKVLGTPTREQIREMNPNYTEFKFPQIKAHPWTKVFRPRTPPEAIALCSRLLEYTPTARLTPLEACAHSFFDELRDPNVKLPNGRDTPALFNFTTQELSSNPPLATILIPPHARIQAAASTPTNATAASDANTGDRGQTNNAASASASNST

For Cc1cc(Nc2nn(-c3ccccc3)c(=O)c3ccccc23)n[nH]1 [PHT, 4-[(5-methyl-1H-pyrazol-3-yl)amino]-2H-phenyl-1-phthalazinone], the pIC50 was 7.54.
